SMILES strings stand for the structures.

As a reminder, the IC50 is the point on the concentration scale where inhibition reaches its midpoint.

The experiment concerns the target T1, human FSH receptor (Homo sapiens, UniProt P23945).
T1 construct: expressed in transfected cells; host or cells: CHO cells (hFSHR clone 16)
T1 sequence (P23945 18-695): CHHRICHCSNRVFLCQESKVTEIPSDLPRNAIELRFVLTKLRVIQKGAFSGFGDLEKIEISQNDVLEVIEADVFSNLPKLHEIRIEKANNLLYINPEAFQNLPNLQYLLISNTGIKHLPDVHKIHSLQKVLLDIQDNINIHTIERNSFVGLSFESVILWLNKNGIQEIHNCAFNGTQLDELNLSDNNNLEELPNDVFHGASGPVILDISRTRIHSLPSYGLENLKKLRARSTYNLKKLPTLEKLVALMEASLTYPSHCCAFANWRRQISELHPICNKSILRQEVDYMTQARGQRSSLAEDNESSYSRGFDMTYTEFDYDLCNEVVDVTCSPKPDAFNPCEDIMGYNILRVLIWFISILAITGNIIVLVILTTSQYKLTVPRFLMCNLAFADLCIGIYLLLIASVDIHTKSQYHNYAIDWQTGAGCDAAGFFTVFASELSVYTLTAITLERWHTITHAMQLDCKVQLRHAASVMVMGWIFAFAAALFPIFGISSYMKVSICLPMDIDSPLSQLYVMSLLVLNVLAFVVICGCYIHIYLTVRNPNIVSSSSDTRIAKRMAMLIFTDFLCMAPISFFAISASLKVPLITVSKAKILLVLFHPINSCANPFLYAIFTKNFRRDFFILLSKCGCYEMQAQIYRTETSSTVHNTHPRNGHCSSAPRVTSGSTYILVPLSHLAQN
The experiment can be described thus: HTRF assay for measuring cAMP in cells (FSH antagonism). Format: cell-based. The following applies: FSH-antagonistic effect; CHO cells stably transfected with the human FSH receptor (hFSHR clone 16); in the presence of 1 e-9 mol/l hFSH; 37°C for 2h. The protocol: HTRF assay for measuring cAMP in cells
The method is based on a competitive immunoassay between native cAMP, which has been produced by the cells, and cAMP which is labelled with XL665. The tracer binding was visualized by a monoclonal antibody, anti-cAMP labelled with cryptate [HTRF = homogeneous time-resolved fluorescence].
The specific signal is inversely proportional to the cAMP concentration of the samples employed.
The 665nm/ 620nm fluorescence ratio was evaluated.
The following material was used: 96-well plates for the tissue culture, 96-well plates with black edge and black base (e.g. Fluotrac 600 from Greiner), 96-well plates for the substance dilutions of polypropylene and cAMP Femtomolar (4000wells Kit, CIS Bio International # 62AM1PEC).
The following reagents were used: BSA (bovine serum albumin) Fraction V protease-free, IBMX (3-isobutyl-1-methylxanthine), hFSH (human follicle stimulating hormone), Triton X-100 analytical grade, potassium fluoride analytical grade, G 418 (Geneticin) and Accutase.
Buffer 1 (washing and testing buffer) contained PBS, 1 mM CaCl2, 1 mM MgCl2, 0.2% glucose; 0.1% BSA, 1 mM IBMX.
Buffer 2 (2x lysis buffer) contained 1% Triton X-100 in PBS (without CaCl2 and MgCl2).
Buffer 3 (assay buffer) contained 50 mM potassium phosphate buffer (pH 7.0); 800 mM potassium fluoride; 0.2% BSA (always added fresh).
On day 1, the cells were seeded in 96-well plates (3x10^4 cells per well hFSHR clone 16 cells (CHO cells stably transfected with the human FSH receptor in 150 µl of medium). The next day, test substance dilutions were made up. For this purpose, all the substances were diluted in ice-cold buffer 1 (with or without hFSH), and the substance dilutions were placed on ice until applied to the cells.
The cell supernatant was then aspirated off, and the cells were washed 2x with 200 µl of buffer 1. The cells were treated with 60 µl of the appropriate substance concentrations at 37°C for 2h. The cells were then lysed with 60 µl of buffer 2 (put onto the supernatant) (on a plate shaker at RT for 30 min).
The test conjugates (XL-665 and anti-cAMP cryptate) were diluted in buffer 3 in accordance with the manufacturers' information. The actual mixture for measurement was pipetted into a black 96-well plate (in each case 15 µl of the cell lysate diluted with 35 µl of buffer 1; firstly 25 µl of XL-665 conjugate were pipetted and, after 10 min, 25 µl of the anti-cAMP cryptate were added). This is followed by incubation at RT for 90 minutes. The measurement was carried out in a PheraStar (BMG).
Tissue culture conditions
• 1) hFSHr clone 16 Ham's F12 PSG 10% FCS 700 µg/ml G 418 (Geneticin) from PAA.
Dose-effect curve (hFSH) for the human receptor: 1 e-8, 3e-9, 1 e-9, 3e-10, 1 e-1 0, 3e-11, 1 e-11, 3e-12 mol/l.
The test substances were employed in suitable dilutions in the absence (test for agonism) and in the presence of 1 e-9 mol/l hFSH.
The values of the well ratio were averaged and then entered directly in SigmaPlot versus the concentrations. The maximum and minimum values were determined for each plate, and half the difference is to be regarded as IC50.
(In general: In TR-FRET formats the signal depends on donor and acceptor labels being close together.)
As to `CNC(=O)c1ccc(-c2ccc(OC(C)C)c(C(=O)NC3(CO)CCc4[nH]c5c(Cl)ccc(Cl)c5c4C3)c2)cc1Cl` (centres unmarked) [Example 25, 3'-Chloro-4-isopropoxy-biphenyl-3,4'-dicarboxylic acid 3-[(5,8-dichloro-3-hydroxymethyl-2,3,4,9-tetrahydro-1 H-carbazol-3-yl)-amide] 4'-methyl-amide], the IC50 turned out to be 0.9 µM.

For `CNC(=O)c1ccc(-c2ccc(OC(C)C)c(C(=O)NC3(CO)CCc4[nH]c5ccc(Cl)cc5c4C3)c2)cc1Cl` (centres unmarked) [Example 34, 3'-Chloro-4-isopropoxy-biphenyl-3,4'-dicarboxylic acid 3-[(6-chloro-3-hydroxymethyl-2,3,4,9-tetrahydro-1 H-carbazol-3-yl)-amide] 4'-methylamide], the IC50 was 1.5 µM.

As for `Cc1ccc2[nH]c3c(c2c1Cl)CC(CO)(NC(=O)c1cc(-c2cc4ccccc4o2)ccc1OC(C)C)CC3` (centres unmarked) [Example 40, 5-Benzofuran-2-yl-N-(5-chloro-3-hydroxymethyl-6-methyl-2,3,4,9-tetrahydro-1H-carbazol-3-yl)-2-isopropoxy-benzamide], the IC50 came to 0.75 µM.

For the compound `CNC(=O)c1ccc(-c2ccc(OC(C)C)c(C(=O)NC3(CO)CCc4[nH]c5ccc(C)cc5c4C3)c2)cc1Cl` (centres unmarked) [Example 32, 3'-Chloro-4-isopropoxy-biphenyl-3,4'-dicarboxylic acid 3-[(3-hydroxymethyl-6-methyl-2,3,4,9-tetrahydro-1H-carbazol-3-yl)-amide] 4'-methylamide], the 50% inhibitory concentration (IC50) is 3 µM.

Regarding `CNC(=O)c1ccc(-c2ccc(OC(C)C)c(C(=O)NC3(CO)CCc4[nH]c5ccc(F)cc5c4C3)c2)cc1Cl` (centres unmarked) [Example 33, 3'-Chloro-4-isopropoxy-biphenyl-3,4'-dicarboxylic acid 3-[(6-fluoro-3-hydroxymethyl-2,3,4,9-tetrahydro-1H-carbazol-3-yl)-amide] 4'-methylamide], the IC50 was 0.07 µM.

For `COc1ccc(-c2ccc(OC(C)C)c(C(=O)NC3(CO)CCc4[nH]c5c(C)ccc(C)c5c4C3)c2)cc1OC` (centres unmarked) [Example 19, 4-Isopropoxy-3',4'-dimethoxy-biphenyl-3-carboxylic acid (3-hydroxymethyl-5,8-dimethyl-2,3,4,9-tetrahydro-1H-carbazol-3-yl)-amide], the concentration for half-maximal inhibition (IC50) stood at 4 µM.

Regarding `CNC(=O)c1ccc(-c2ccc(OC(C)C)c(C(=O)NC3(CO)CCc4[nH]c5c(Cl)cccc5c4C3)c2)cc1Cl` (centres unmarked) [Example 30, 3'-Chloro-4-isopropoxy-biphenyl-3,4'-dicarboxylic acid 3-[(8-chloro-3-hydroxymethyl-2,3,4,9-tetrahydro-1H-carbazol-3-yl)-amide] 4'-methylamide], the half-maximal inhibitory concentration (IC50) came to 0.2 µM.

Consider `COc1ccc2nc(-c3ccccc3)cc(C(=O)NC3(CO)CCc4[nH]c5cc(Cl)c(F)cc5c4C3)c2c1` (centres unmarked) [Example 13, 6-Methoxy-2-phenyl-quinoline-4-carboxylic acid (7-chloro-6-fluoro-3-hydroxymethyl-2,3,4,9-tetrahydro-1 H-carbazol-3-yl)-amide], for which the IC50 was determined as 8 µM.

(Values after EP1975159A1, “2,3,4,9-Tetrahydro-1H-carbazoles” (Bayer Schering Pharma Aktiengesellschaft, priority 2007, dated 2008).)
